Data as given in patent US11673889B2, “Substituted imidazo[4,5-c][1,8]naphthyridines as phosphodiesterase inhibitors” (Nanjing Zhengxiang Pharmaceuticals Co., Ltd., priority 2019, dated 2023).

Columns and labels:
[1] = target: T1, human soluble ENPP1 (Homo sapiens, UniProt P22413); experiment: ENPP1 activity assay using p-Nitrophenyl-5′-AMP as a substrate; type: biochemical
T1 construct: 20 ng of human soluble ENPP1
T1 sequence (P22413 103-925 limits assumed): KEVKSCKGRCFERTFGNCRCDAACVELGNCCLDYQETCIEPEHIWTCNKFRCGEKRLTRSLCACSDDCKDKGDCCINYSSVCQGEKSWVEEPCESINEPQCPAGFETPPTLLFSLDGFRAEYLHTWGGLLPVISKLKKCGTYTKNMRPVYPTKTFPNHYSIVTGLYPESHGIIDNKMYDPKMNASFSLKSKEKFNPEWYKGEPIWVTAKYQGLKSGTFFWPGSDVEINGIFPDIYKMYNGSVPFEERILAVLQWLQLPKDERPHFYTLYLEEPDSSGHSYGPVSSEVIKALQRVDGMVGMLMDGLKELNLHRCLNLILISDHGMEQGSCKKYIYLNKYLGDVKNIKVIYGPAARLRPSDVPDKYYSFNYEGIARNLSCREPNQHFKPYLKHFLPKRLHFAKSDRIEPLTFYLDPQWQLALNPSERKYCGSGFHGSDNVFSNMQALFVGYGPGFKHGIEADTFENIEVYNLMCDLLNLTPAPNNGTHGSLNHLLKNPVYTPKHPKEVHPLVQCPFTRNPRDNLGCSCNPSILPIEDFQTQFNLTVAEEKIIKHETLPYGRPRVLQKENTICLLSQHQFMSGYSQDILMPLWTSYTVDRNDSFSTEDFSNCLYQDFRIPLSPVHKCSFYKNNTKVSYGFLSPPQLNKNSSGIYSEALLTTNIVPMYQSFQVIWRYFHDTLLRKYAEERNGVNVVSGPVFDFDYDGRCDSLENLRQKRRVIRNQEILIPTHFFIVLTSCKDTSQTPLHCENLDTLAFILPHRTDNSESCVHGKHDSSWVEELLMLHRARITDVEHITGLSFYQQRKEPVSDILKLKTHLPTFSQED
Experimental: AMP-pNP can be used as substrate of ENPP-1. Its hydrolysis products were nucleotide-5′-monophosphate and p-nitrophcnol, which is also a chromogenic product. The amount of p-nitrophenol product formed is measured using its absorbance at 405 nm, which is directly proportional to enzyme activity.
Load into a well with […] of human soluble ENPP1 in 50 μL and incubate at room temperature with 25 μL inhibitor solution (4× Final Concentration) for 30 mins prior adding 25 μL 3 mM AMP solution (2× Final Concentration) into the well, Incubate at RT for 1 hour. The amounts of released p-nitrophenolate were measured by reading OD value at 405 nm.
(§1) The percent inhibition at each compound is calculated as follows: % inhibition=(ODMAX−ODCOMPOUND)/(ODMAX−ODMIN)*100. (MAX: absence of ENPP1 inhibitors control, MIN: blank control.)
(§2) The IC50 values for percent inhibition versus compound concentration are determined by fitting the inhibition curves using a four-parameter variable slope model in GraphPad Prism® 8.

[2] = target: T1, human soluble ENPP1; experiment: ENPP1 activity assay using p-Nitrophenyl-5′-TMP as a substrate; type: biochemical
Experimental: ENPP1 is a transmembrane glycoprotein that hydrolyzes nucleotides and nucleotide derivatives with the formation of nucleotide-5′-monophosphates. ENPP1 hydrolyzes artificial phosphoric acid ester thymidine 5′monophosphate p-nitrophenyl ester (TMP-pNP) to nucleotide-5′-monophosphate and p-nitrophenol, which is a chromogenic product.
Load into a well with 20 ng of human soluble ENPP1 in 50 μL and incubate at room temperature with 25 μL inhibitor solution (4× Final Concentration) for 30 mins. Then, add 25 μL 2 mM TMP solution (2× Final Concentration) into the well, Incubate at RT for 1 hour.
as §1
The IC50 values for percent inhibition versus compound concentration were determined by fitting the inhibition curves using a four-parameter variable slope model in GraphPad Prism® 8.

[3] = target: T2, ENPP-1, MDA-MB-231 cells (Homo sapiens, UniProt P22413); experiment: cell-based; details: for inhibition at 20 µM: MDA-MB-231, read-out: % Inhibition (at 20 μM)
T2 sequence (P22413 1-925): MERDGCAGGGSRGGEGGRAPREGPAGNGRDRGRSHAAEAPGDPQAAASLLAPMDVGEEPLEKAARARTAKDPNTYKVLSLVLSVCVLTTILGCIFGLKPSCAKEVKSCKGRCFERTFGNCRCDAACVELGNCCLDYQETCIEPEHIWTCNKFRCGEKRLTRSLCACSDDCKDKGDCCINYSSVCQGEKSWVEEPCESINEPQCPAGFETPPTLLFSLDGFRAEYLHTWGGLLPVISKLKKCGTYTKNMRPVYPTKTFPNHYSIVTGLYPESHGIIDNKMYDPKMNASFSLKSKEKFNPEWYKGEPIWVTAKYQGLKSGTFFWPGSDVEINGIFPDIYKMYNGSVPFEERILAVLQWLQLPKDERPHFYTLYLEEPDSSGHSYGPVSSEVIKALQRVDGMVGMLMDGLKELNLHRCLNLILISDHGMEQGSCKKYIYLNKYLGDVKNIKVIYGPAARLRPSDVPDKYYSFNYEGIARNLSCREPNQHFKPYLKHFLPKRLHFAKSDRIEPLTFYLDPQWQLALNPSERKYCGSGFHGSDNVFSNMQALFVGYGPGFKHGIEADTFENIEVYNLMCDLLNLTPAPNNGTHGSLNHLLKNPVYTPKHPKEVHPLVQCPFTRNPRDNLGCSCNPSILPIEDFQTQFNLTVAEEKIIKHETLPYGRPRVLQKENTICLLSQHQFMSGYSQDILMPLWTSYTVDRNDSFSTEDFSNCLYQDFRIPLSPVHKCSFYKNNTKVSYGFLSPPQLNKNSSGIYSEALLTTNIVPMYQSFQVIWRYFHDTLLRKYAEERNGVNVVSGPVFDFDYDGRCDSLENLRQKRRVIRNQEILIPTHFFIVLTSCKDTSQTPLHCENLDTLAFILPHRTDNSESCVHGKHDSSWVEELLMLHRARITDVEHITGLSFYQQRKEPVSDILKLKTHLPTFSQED
Experimental: ENPP-1 were mainly expressed on the surface of cell membrane where it hydrolytes 2′3′-cGAMP to generate 5′-GMP and 5′-AMP. ENPP-1 also has the ability to hydrolyzes artificial phosphoric acid ester TMP-pNP to nucleotide-5′-monophosphate and p-nitrophcnol there, which is a chromogenic product.
8 point of different concentrations of each inhibitor were prepared with the final assay concentrations starting at 20 μM. 3× series dilution by DMEM medium without FBS was applied. Prior to adding inhibitors, 75000 cells per well were incubated at 37° C., 5% CO2 in DMEM for 24 hours. After removing the supernatant medium, 50 μL inhibitor solution was added into each well with cultured cells and incubate at 37° C., 5% CO2 for 60 minutes.
as §2

[4] = substrate TMP-pNP, 20 ng human soluble ENPP1, Tris buffer pH 9.5, read-out: TMP-pNP (IC50)

Row | Compound | IC50 [1] [nM] | IC50 [2, 4] [nM] | IC50 [3] [nM] | inhibition at 20 µM [3] [%] | IC50 [2] [nM]
1 | COc1ccc2c(n1)nc(C)c1nc(C)n(Cc3ncc(S(N)(=O)=O)cn3)c12 [Compound 91a, 2-((7-methoxy-2,4-dimethyl-1H-imidazo[4,5-c][1,8]naphthyridin-1-yl)methyl)pyrimidine-5-sulfonamide] | 323 | 83 | > 6700 | 53 | –
2 | COc1ccc2c(ncc3ncn(Cc4ccc(S(N)(=O)=O)cc4Br)c32)n1 [Compound 68, 3-bromo-4-((7-methoxy-1H-imidazo[4,5-c][1,8]naphthyridin-1-yl)methyl)benzenesulfonamide] | 1.7 | 0.49 | 610 | 86 | –
3 | COc1ccc2c(ncc3nc(C4CN(S(C)(=O)=O)C4)n(Cc4ccc(S(N)(=O)=O)c(F)c4)c32)n1 [Compound 86, 2-fluoro-4-((7-methoxy-2-(1-(methylsulfonyl)azetidin-3-yl)-1H-imidazo[4,5-c][1,8]naphthyridin-1-yl)methyl)benzenesulfonamide] | 3.2 | – | 620 | 80 | 0.81
4 | COc1ccc2c(n1)nc(C)c1nc(C)n(Cc3cc(F)c(S(N)(=O)=O)cc3F)c12 [Compound 90, 2,5-difluoro-4-((7-methoxy-2,4-dimethyl-1H-imidazo[4,5-c][1,8]naphthyridin-1-yl)methyl)benzenesulfonamide] | 7.7 | – | 980 | 74 | 2.4
5 | CCC(=O)NS(=O)(=O)c1cc(F)c(Cn2c(=O)[nH]c3cnc4nc(OC)ccc4c32)c(F)c1 [Compound 105, sodium ((3,5-difluoro-4-((7-methoxy-2-oxo-2,3-dihydro-1H-imidazo[4,5-c][1,8]naphthyridin-1-yl)methyl)phenyl)sulfonyl)(propionyl)amide] | 19 | 21 | > 6700 | 67 | –
6 | COc1ccc2c(ncc3[nH]c(=O)n(Cc4c(F)cc(C(=O)NO)cc4F)c32)n1 [Compound 110, 3,5-difluoro-N-hydroxy-4-((7-methoxy-2-oxo-2,3-dihydro-1H-imidazo[4,5-c][1,8]naphthyridin-1-yl)methyl)benzamide] | 2.6 | 0.6 | 150 | 86 | –
7 | COc1ccc2c(ncc3[nH]c(=O)n(Cc4c(F)cc(S(N)(=O)=O)c(F)c4F)c32)n1 [Compound 112, 2,3,5-trifluoro-4-((7-methoxy-2-oxo-2,3-dihydro-1H-imidazo[4,5-c][1,8]naphthyridin-1-yl)methyl)benzenesulfonamide] | 0.99 | 0.3 | 70 | 80 | –

The next lines start with the values.

Row | IC50 [1] [nM] | IC50 [2, 4] [nM] | IC50 [3] [nM] | inhibition at 20 µM [3] [%] | IC50 [2] [nM] | Compound
8 | 21 | – | 2.7 | 82 | 7.2 | COc1ccc2c(ncc3nc(C)n(Cc4cc(F)c(P(=O)(O)O)cc4F)c32)n1 [Compound 125, (2,5-difluoro-4-((7-methoxy-2-methyl-1H-imidazo[4,5-c][1,8]naphthyridin-1-yl)methyl)phenyl)phosphonic acid]
9 | 21 | – | 0.31 | 80 | 7.4 | COc1ccc2c(n1)nc(C)c1nnn(Cc3ccc(S(N)(=O)=O)cn3)c12 [Compound 136, 6-((7-methoxy-4-methyl-1H-[1,2,3]triazolo[4,5-c][1,8]naphthyridin-1-yl)methyl)pyridine-3-sulfonamide]
10 | 5.4 | 1.7 | 11000 | 57 | – | COc1ccc2c(ncc3[nH]c(=O)n(Cc4ccc(S(N)(=O)=O)nc4)c32)n1 [Compound 96, 5-((7-methoxy-2-oxo-2,3-dihydro-1H-imidazo[4,5-c][1,8]naphthyridin-1-yl)methyl)pyridine-2-sulfonamide]
11 | 66 | – | 5700 | 64 | 16 | COc1ccc2c(ncc3[nH]c(=O)n(Cc4c(F)cc(C(=O)O)cc4F)c32)n1 [Compound 108, 3,5-difluoro-4-((7-methoxy-2-oxo-2,3-dihydro-1H-imidazo[4,5-c][1,8]naphthyridin-1-yl)methyl)benzoic acid]
12 | 34 | – | 16000 | 16 | 8.1 | COc1ccc2c(ncc3ccn(Cc4ccc(S(N)(=O)=O)cc4)c32)n1 [Compound 117, 4-((7-methoxy-1H-pyrrolo[3,2-c][1,8]naphthyridin-1-yl)methyl)benzenesulfonamide]
13 | 15 | – | 4800 | 65 | 8.6 | COc1ccc2c(ncc3nc(C)n(Cc4ccc(S(=O)(=O)NC(C)=O)cn4)c32)n1 [Compound 77, N-((6-((7-methoxy-2-methyl-1H-imidazo[4,5-c][1,8]naphthyridin-1-yl)methyl)pyridin-3-yl)sulfonyl)acetamide]
14 | 0.19 | 0.04 | 80 | 88 | – | COc1ccc2c(ncc3c2n(Cc2c(F)cc(S(N)(=O)=O)cc2F)c(=O)n3CC(F)(F)F)n1 [Compound 131, 3,5-difluoro-4-((7-methoxy-2-oxo-3-(2,2,2-trifluoroethyl)-2,3-dihydro-1H-imidazo[4,5-c][1,8]naphthyridin-1-yl)methyl)benzenesulfonamide]
15 | 0.32 | 0.11 | 56 | 78 | – | COc1ccc2c(ncc3c2n(Cc2c(F)cc(S(N)(=O)=O)cc2F)c(=O)n3CCO)n1 [Compound 115, 3,5-difluoro-4-((3-(2-hydroxyethyl)-7-methoxy-2-oxo-2,3-dihydro-1H-imidazo[4,5-c][1,8]naphthyridin-1-yl)methyl)benzenesulfonamide]
